This is an account of results in patent publication US10106833B2, “Methods and compounds for identifying glycosyltransferase inhibitors” (priority 2012, dated 2018).

The subject of assay [1] is bacterial glycosyltransferase (E. coli PBP1b; E. faecalis PBP2a; S. aureus SgtB). Briefly: Assay validation: displacement of probe compound from enzyme (fluorescence polarization). It counts as binding. The following applies: 75 nM probe S16; test compound up to ca. 200 uM. The procedure: (§1) To equilibrated solutions containing 10 mM TRIS (pH=8.0), 100 mM NaCl, 75 nM S16, and bacterial glycosyltransferase (E. coli PBP1b c=0.1-0.15 uM; E. faecalis PBP2a c=0.38-0.46 uM; S. aureus SgtB c=0.2-0.25 uM) was added the test compound in DMSO or DMSO/H2O solutions (stock solutions were typically 2 mM) to obtain a final concentration of test compound of ca. 200 uM. These solutions were serially diluted (1/1 dilutions) into buffer containing 10 mM TRIS (pH=8.0), 100 mM NaCl, 75 nM Probe CMG121, and bacterial glycosyl transferase (E. coli PBP1b c=0.1-0.15 uM; E. faecalis PBP2a c=0.38-0.46 uM; S. aureus SgtB c=0.2-0.25 uM). After equilibration at 0° C. for 30 min the 20 μL of the solutions were transferred to a black 384 well plate (Corning NBS Low Volume) and fluorescence polarization (FP, ex: 480 nm; em: 535 nm) was measured using a Perkin Elmer Envision microplate reader. Each series was performed in duplicate and the data was plotted FP vs. concentration of test compound.
A general note: In fluorescence polarisation assays a small probe gives low polarisation when free and higher when bound to something large.

Assay [2] has as its target T1, E. coli PBP1b (Escherichia coli, UniProt P02919). Briefly: In vitro PGT inhibition, PG formation from 14C-lipid II. It counts as biochemical. As to conditions: E. coli PBP1b 50 nM, lipid II 4 μM. How it is done: (§2) A solutions of S. aureus SgtB (50 nM) in 12.5 mM HEPES (pH=7.5), 2 mM MnCl2, and 250 μM tween-80 (8 μL) were incubated with DMSO solutions containing the inhibitor of interest in different concentrations (1 μL) for 20 min. Then ^14C-labelled lipid II (1 μL, 40 μM, ^14C/^12C 1/3) was added and the polymerization reaction was allowed to proceed for 25 min at room temperature. The reaction was quenched with 10 μL of a solution of moenomycin (1 μM) in 10% triton-X reduced and the remaining lipid II was separated from peptidoglycan (PG) using paper strip chromatography (isobutyric acid/1M NH4OH 5/3). Using a scintillation counter the ratio of radioactivity in PG to total radioactivity was determined and plotted vs. inhibitor concentration. IC50s were determined using the curve fitting program GraphPad Prism 5.0 (GraphPad Software, Inc.; La Jolla, Calif., USA).
Solutions of the PGT (50 nM) in 50 mM HEPES (pH=7.5), 10 mM CaCl2, and […] PenG (8 μL) were incubated with DMSO solutions containing the inhibitor of interest in different concentrations (1 μL) for 20 min. Then ^14C-labelled lipid II (1 μL, 40 μM, ^14C/^12C 1/3) was added and the polymerization reaction was allowed to proceed for 25 min at room temperature. The reaction was quenched and processed as described above.

Assay [3] concerns the target T2, S. aureus SgtB (Staphylococcus aureus, UniProt Q93Q23).
T2 sequence (Q93Q23 1-269): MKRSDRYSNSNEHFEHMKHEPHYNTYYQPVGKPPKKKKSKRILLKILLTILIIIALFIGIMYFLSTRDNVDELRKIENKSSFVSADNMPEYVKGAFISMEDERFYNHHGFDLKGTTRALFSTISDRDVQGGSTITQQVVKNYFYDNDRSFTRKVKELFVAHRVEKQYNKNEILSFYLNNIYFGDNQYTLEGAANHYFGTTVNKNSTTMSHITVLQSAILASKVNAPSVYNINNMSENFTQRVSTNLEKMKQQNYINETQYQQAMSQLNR
Described as above. As to conditions: S. aureus SgtB 50 nM, lipid II 4 μM. The assay is classed as biochemical. How it is done: as §2

The target of assay [4] is S. aureus SgtB. Briefly: Fluorescence polarization probe competition (Ki). As to conditions: probe CMG121 75 nM, S. aureus SgtB 0.2 μM; read-out: Ki (displacement of probe CMG121). The assay is classed as binding. The procedure:
as §1, with “Each series was performed in duplicate and the data was plotted FP vs. concentration of test compound.” left out
A black 384 well plate (Corning NBS Low Volume No. 3820) was filled (10 μL per well) with an equilibrated solution containing 10 mM TRIS (pH=8.0), 100 mM NaCl, 75 nM disaccharide S15, and 1.0-1.5 μM S. aureus SgtB (depending on protein batch). […] The plate was incubated at 4° C. for 30 min and read with an Perkin Elmer EnVision microplate reader as described above. […]
For determination of the Ki, the average FP values were first converted to fluorescence anisotropy. […]

Another assay has as its system Gram-positive organisms. As to conditions: against Gram-positive organisms; cited from earlier work.
The target of assay [5] is T1, E. coli PBP1b. In words: Displacement of probe compound S16 (CMG121) from E. coli PBP1b, decrease in fluorescence polarization on addition of test compound. It counts as binding. The procedure:
(§3) Solution containing 10 mM TRIS (pH=8.0), 100 mM NaCl, 0.3% DMSO, 75 nM S16, and bacterial glycosyltransferase (E. coli PBP1b c=2.2 uM; E. faecalis PBP2a c=5.1 uM; S. aureus SgtB c=2.1 uM) were allowed to equilibrate for 30 min at 0° C. and then serially diluted (1/1 dilutions) into buffer containing 10 mM TRIS (pH=8.0), 100 mM NaCl, 0.3% DMSO, and 75 nM S16. After equilibration at 0° C. for 30 min the 20 μL of the solutions were transferred to a black 384 well plate (Corning NBS Low Volume) and fluorescence polarization (FP, ex: 480 nm; em: 535 nm) was measured using a Perkin Elmer Envision microplate reader. Each series was performed in duplicate and the data was plotted FP vs. concentration of enzyme. For determination of the KD, the average FP values were converted to fluorescence anisotropy and fitted to the standard equation describing an equilibrium L+E<->LE (L=ligand; E=enzyme; LE=ligand enzyme complex) using GraphPad Prism 5.0 (GraphPad Software, Inc.; La Jolla, Calif., USA). The KD values for probe S16 are: E. coli PBP1b: 0.15; E. faecalis PBP2a: 0.38; […]
(§4) For determination of the Ki, the average FP values were first converted to fluorescence anisotropy.

Assay [6] deals with S. aureus SgtB (Staphylococcus aureus, UniProt Q99T05). In words: Displacement of probe compound S16 (CMG121) from S. aureus SgtB, decrease in fluorescence polarization on addition of test compound. The assay is classed as binding. As to conditions: read-out: S. aureus SgtB Kd; FIG. 2; FP displacement; 75 nM probe S16, 0.2-0.25 uM SgtB, 10 mM TRIS pH 8.0, 100 mM NaCl, 0° C. 30 min. The procedure: Solution containing 10 mM TRIS (pH=8.0), 100 mM NaCl, 0.3% DMSO, 75 nM S16, and bacterial glycosyltransferase (E. coli PBP1b c=2.2 uM; E. faecalis PBP2a c=5.1 uM; S. aureus SgtB c=2.1 uM) were allowed to equilibrate for 30 min at 0° C. and then serially diluted (1/1 dilutions) into buffer containing 10 mM TRIS (pH=8.0), 100 mM NaCl, 0.3% DMSO, and 75 nM S16. After equilibration at 0° C. for 30 min the 20 μL of the solutions were transferred to a black 384 well plate (Corning NBS Low Volume) and fluorescence polarization (FP, ex: 480 nm; em: 535 nm) was measured using a Perkin Elmer Envision microplate reader. Each series was performed in duplicate and the data was plotted FP vs. concentration of enzyme. For determination of the KD, the average FP values were converted to fluorescence anisotropy and fitted to the standard equation describing an equilibrium L+E<->LE (L=ligand; E=enzyme; LE=ligand enzyme complex) using GraphPad Prism 5.0 (GraphPad Software, Inc.; La Jolla, Calif., USA). The KD values for probe S16 are: E. coli PBP1b: 0.15; E. faecalis PBP2a: 0.38;
S. aureus SgtB: 0.18. Probe CMG121 (75 nM) is displaced from S. aureus SgtB (0.2 μM) by addition of either moenomycin or the weaker PGT inhibitor disaccharide S15, as evidenced by reduction of FP. […]
as §4

In a further assay the target is E. faecalis PBP2a (Enterococcus faecalis, UniProt Q837Z4). Briefly: Displacement of probe compound S16 (CMG121) from E. faecalis PBP2a, decrease in fluorescence polarization on addition of test compound. The assay is classed as binding. The following applies: read-out: E. faecalis PBP2a Kd; FIG. 2; FP displacement; 75 nM probe S16, 0.38-0.46 uM PBP2a, 10 mM TRIS pH 8.0, 100 mM NaCl, 0° C. 30 min. The procedure:
as §3, §4

T1 sequence (P02919 whole entry): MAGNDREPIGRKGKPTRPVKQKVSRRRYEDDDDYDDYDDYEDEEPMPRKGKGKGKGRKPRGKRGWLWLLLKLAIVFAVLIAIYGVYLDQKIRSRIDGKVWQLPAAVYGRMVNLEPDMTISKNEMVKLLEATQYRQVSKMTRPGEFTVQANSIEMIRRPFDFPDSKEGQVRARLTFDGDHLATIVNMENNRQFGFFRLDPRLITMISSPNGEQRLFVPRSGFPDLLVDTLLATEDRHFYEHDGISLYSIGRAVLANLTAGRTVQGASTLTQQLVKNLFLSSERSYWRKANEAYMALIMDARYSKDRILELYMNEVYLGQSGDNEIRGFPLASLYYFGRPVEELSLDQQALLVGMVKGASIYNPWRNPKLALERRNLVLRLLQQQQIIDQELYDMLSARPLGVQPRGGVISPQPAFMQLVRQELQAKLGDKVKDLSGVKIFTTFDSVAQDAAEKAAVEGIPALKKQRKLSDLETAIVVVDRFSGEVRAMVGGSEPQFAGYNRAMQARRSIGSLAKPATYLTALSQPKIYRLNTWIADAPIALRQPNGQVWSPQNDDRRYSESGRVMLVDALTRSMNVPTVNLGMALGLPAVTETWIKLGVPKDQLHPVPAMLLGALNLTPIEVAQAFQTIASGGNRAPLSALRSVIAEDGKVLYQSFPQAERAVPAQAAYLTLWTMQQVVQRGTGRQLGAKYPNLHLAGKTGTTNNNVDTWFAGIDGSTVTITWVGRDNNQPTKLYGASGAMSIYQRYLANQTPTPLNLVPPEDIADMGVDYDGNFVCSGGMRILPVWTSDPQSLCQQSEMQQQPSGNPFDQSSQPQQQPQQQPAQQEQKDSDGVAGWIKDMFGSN
Sequence of E. faecalis PBP2a (Q837Z4 entry or part of it): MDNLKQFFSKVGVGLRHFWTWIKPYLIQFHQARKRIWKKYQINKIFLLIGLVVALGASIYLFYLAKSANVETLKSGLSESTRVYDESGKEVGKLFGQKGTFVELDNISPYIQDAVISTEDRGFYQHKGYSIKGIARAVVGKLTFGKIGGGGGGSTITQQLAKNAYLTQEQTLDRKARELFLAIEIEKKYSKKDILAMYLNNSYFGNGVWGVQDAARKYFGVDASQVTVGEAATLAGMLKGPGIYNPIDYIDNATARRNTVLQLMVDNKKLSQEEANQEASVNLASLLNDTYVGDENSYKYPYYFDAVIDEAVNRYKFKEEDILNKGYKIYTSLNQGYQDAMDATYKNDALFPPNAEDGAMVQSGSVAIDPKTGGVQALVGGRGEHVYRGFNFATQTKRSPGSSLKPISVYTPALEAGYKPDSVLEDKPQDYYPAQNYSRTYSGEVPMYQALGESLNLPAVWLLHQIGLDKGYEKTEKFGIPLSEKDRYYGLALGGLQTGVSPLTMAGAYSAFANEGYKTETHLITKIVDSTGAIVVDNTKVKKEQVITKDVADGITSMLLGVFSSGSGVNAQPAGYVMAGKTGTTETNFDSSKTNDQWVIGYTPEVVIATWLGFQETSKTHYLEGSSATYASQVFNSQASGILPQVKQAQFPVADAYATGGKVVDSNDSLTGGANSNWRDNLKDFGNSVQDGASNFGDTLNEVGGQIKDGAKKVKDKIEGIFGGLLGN

For `CCCCCCCCCCCCO[C@@H]1O[C@H](CO)[C@@H](O[C@H]2O[C@H](CO)[C@@H](O)[C@H](O)[C@H]2O)[C@H](O)[C@H]1O` [dodecyl-β-D-maltoside], the “Displacement of the probe compound (change in fluorescence polarization) on addition of test compound” value in assay [1] is on record as “does not displace”.
Turning to `CCCCCCCCCCCCCC(=O)OC[C@H](COP(=O)(O)OCC(O)COP(=O)(O)OC[C@@H](COC(=O)CCCCCCCCCCCCC)OC(=O)CCCCCCCCCCCCC)OC(=O)CCCCCCCCCCCCC` (stereo partly drawn) [tetramystryl cardiolipin], the “Displacement of the probe compound (change in fluorescence polarization) on addition of test compound” value in assay [1] was “partial displacement”.
With `C=C(C/C=C(\C)CCC=C(C)C)CCC(C)(C)/C=C/CC/C(C)=C\CO[C@H](COP(=O)(O)O[C@H]1O[C@H](C(N)=O)[C@@](C)(O)[C@H](OC(N)=O)[C@H]1O[C@@H]1O[C@H](CO[C@@H]2O[C@H](CO)[C@@H](O)[C@H](O)[C@H]2O)[C@@H](O[C@@H]2O[C@H](C)[C@@H](O[C@@H]3O[C@H](C(=O)NC4=C(O)CCC4=O)[C@H](O)[C@H](O)[C@H]3O)[C@H](O)[C@H]2NC(C)=O)[C@H](O)[C@H]1NC(C)=O)C(=O)O` [moenomycin A], the “Displacement of the probe compound (change in fluorescence polarization) on addition of test compound” value in assay [1] was “decrease in fluorescence polarization”. Besides, the IC50 – broadly, the midpoint of a concentration-inhibition curve – amounted to 0.012 µM at E. coli PBP1b [2] and 0.006 µM against S. aureus SgtB [3]. For the same molecule, on S. aureus SgtB [4], the Ki (usually the dissociation constant of the complex between target and ligand, obtained from inhibition or displacement) was 0.64 µM. In addition, the “Potency relative to vancomycin” value in the assay on Gram-positive organisms is given as 10-1000 times.
`CC(=O)N[C@H]1[C@H](O[C@H]2[C@H](O)[C@@H](NC(C)=O)[C@H](O[C@H]3[C@@H](OP(=O)(O)OC[C@@H](OC/C=C(/C)CCC=C(C)C)C(=O)O)O[C@H](C(N)=O)[C@@](C)(O)[C@@H]3OC(N)=O)O[C@@H]2CO[C@@H]2O[C@H](CO)[C@@H](O)[C@H](O)[C@H]2O)O[C@H](C)[C@@H](O[C@@H]2O[C@H](C(=O)NC3=C(O)CCC3=O)[C@H](O)[C@H](O)[C@H]2O)[C@@H]1O` [neryl-Moenomycin A (n-MmA), neryl-moenomycin A] had a concentration for half-maximal inhibition (IC50) on E. coli PBP1b [5] (FIG. 6, printed on the figure showing FP displacement of the probe by neryl-moenomycin A) of 0.2 µM.
On to nC12-moenomycin A, for which, in assay [1], the “Displacement of the probe compound (change in fluorescence polarization) on addition of test compound” value is reported as “decrease in fluorescence polarization”.
On to `C=C(C/C=C(\C)CCC=C(C)C)CCC(C)(C)/C=C/CC/C(C)=C\CO[C@H](COP(=O)(O)O[C@H]1O[C@H](C(N)=O)[C@@](C)(O)[C@H](OC(N)=O)[C@H]1O[C@@H]1O[C@H](CO[C@@H]2O[C@H](CO)[C@@H](O)[C@H](O)[C@H]2O)[C@@H](O[C@@H]2O[C@H](C)[C@@H](O[C@@H]3O[C@H](C(=O)NC4=C(O)CCC4=O)[C@H](O)[C@H](O)[C@H]3O)[C@H](O)[C@H]2NC(C)=O)[C@H](O)[C@H]1NC(C)=O)C(=O)O` [Moenomycin A], for which the Kd – broadly, a measure of binding affinity in units of concentration – is 1.1 µM on S. aureus SgtB [6]; 3.9 µM on E. coli PBP1b [5] (read-out: E. coli PBP1b Kd, FIG. 2, FP displacement, 75 nM probe S16, 0.1-0.15 uM PBP1b, 10 mM TRIS pH 8.0, 100 mM NaCl, 0° C. 30 min); 0.95 µM at E. faecalis PBP2a.
Consider nC20-moenomycin A, for which the “Displacement of the probe compound (change in fluorescence polarization) on addition of test compound” value in assay [1] was “decrease in fluorescence polarization”.
Consider ZE-farnesyl-moenomycin A, for which, in assay [1], the “Displacement of the probe compound (change in fluorescence polarization) on addition of test compound” value is reported as “decrease in fluorescence polarization”.
Same read-out and setting: the value for `CC(=O)N[C@H]1[C@H](O[C@H]2[C@H](O)[C@@H](NC(C)=O)[C@H](O[C@H]3[C@@H](OP(=O)(O)OC[C@@H](OC/C=C(/C)CCC=C(C)C)C(=O)O)O[C@H](C(N)=O)[C@@](C)(O)[C@@H]3OC(N)=O)O[C@@H]2CO[C@@H]2O[C@H](CO)[C@@H](O)[C@H](O)[C@H]2O)O[C@H](C)[C@@H](O[C@@H]2O[C@H](C(=O)NC3=C(O)CCC3=O)[C@H](O)[C@H](O)[C@H]2O)[C@@H]1O` [neryl-moenomycin A] was “decrease in fluorescence polarization”.
